From patent publication US20230095912A1, “Composition and Methods for Selective Degradation of Engineered Proteins” (Celgene Corporation, priority 2021, published 2023)
Like-named read-outs stand apart in the source and are kept apart here.

Key:
[1] = molecular target: T1, CD19 CARs tagged with IKZF1 ZNF2_ZNF3 Q1F (Homo sapiens, UniProt Q13422, Q146F); assay: Small-molecule screen: Q1F degron-tagged CD19 CAR levels in Jurkat cells, flow cytometry; format: cell-based
T1 construct: EC50 (Q1F degron); other: Jurkat cells, 18 hours, CAR levels normalized to no drug; Ymin (Q1F degron); Ymin (%); minimum percent protein remaining; Nluc reporter
T1 sequence (Q13422 whole entry Q146F): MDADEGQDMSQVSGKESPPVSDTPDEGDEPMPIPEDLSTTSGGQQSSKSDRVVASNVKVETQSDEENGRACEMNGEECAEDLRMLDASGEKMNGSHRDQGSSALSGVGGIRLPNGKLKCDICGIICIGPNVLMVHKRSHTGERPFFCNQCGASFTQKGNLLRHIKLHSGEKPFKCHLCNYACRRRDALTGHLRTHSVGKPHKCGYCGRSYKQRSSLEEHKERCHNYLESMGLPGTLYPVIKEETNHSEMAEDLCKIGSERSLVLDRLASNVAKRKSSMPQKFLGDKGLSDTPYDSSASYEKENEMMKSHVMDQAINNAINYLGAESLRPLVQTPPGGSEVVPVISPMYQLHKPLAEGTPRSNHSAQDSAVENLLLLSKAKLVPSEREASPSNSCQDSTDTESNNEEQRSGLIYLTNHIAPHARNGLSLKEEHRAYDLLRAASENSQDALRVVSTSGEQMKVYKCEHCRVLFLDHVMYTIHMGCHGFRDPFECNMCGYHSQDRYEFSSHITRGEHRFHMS
Method: A set of potential degron-targeting compounds was screened against the Q1F degron, resulting in a set of potent degron/small-molecule pairs. Lentiviral vectors containing CD19 CARs tagged with IKZF1 ZNF2_ZNF3 Q1F Nluc were transduced into Jurkat cells. The CD19 CAR was similar to the CD19 CAR in Example 2, but comprising the ZNF2_ZNF3 Q1F degron (SEQ ID NO: 19). Transduced cells were treated with a titration of each small molecule or no drug and then incubated at 37° C. for 18 hours. Cells were washed and stained with appropriate staining reagent to measure CAR levels. The cells were incubated at 4° C. in the staining reagents for 20 mins and then washed 3 times before being read on the flow cytometer. CAR levels were normalized to cells that had not been treated with drug. EC50 and Ymin values were calculated using the resulting titration curve. This identified small molecules that potently degraded the Q1F degron-tagged CARs (Table 1).

[2] = molecular target: T2, IKZF1 ZNF2_3 Q1F tagged CD19 CAR (Homo sapiens, UniProt Q13422, Q146F); assay: CRBN and ubiquitin-proteasome pathway dependence of Q1F-tagged CAR degradation in Jurkat cells; format: cell-based; design: tagged CAR remaining / levels of tagged CAR: dose or concentration left out as unconfirmed; conditions: Jurkat CRBN KO cells, 1 hour
T2 construct: expressed in transfected cells; host or cells: Jurkat wild type, Jurkat CRBN knockout, Jurkat reporter line; lentiviral transduction
T2 sequence (Q13422 141-196 Q146F): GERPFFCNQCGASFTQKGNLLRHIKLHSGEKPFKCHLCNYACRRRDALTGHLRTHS
Method: (§1) The dependence of Q1F-degron-tagged CAR degradation on CRBN and ubiquitin proteolytic pathway were assessed. CD19-targeting CAR was tagged with either IKZF1 ZNF2_3 Q1F (SEQ ID NO: 19) or Q1F/G6N (SEQ ID NO: 59). Lentiviral vectors containing these tagged CARs were then transduced into wildtype (WT) or cereblon (CRBN) knockout (KO) Jurkat cells.
(§2) Next, dependence of CAR degradation on the ubiquitin-proteosome pathway was tested by treating WT Jurkats transduced with tagged CAR for 2 hours with DMSO, 20 nM or 200 nM Compound C alone, or alongside either 2 μM of the NEDD8 E1 enzyme inhibitor MLN4924 or 2 μM of proteasome blocker Bortezomib (FIG. 11C).

[3] = test system: IKZF1 ZNF2_3 Q1F tagged CD19 CAR; assay: as above; format: cell-based, human; design: tagged CAR remaining / levels of tagged CAR: dose or concentration left out as unconfirmed
Method: as §1, §2

[4] = test system: IKZF1 ZNF2_3 Q1F tagged anti-ROR1 CAR; assay: CAR surface levels in primary T cells, flow cytometry; format: cell-based, human; conditions: dose titration
Method: (§3) The ability to use compounds to titrate primary CAR T effector function by degrading IKZF1 ZNF2_3 Q1F tagged anti-ROR1 CAR (FIG. 13A) was evaluated. The CAR included similar transmembrane, costimulatory, and signaling domains as the CD19 CAR, but with an anti-ROR1 scFv. A lentiviral vector encoding ZNF2_3 Q1F tagged or untagged anti-ROR1 CAR was transduced into activated primary T cells. Transduced cells were expanded for 10 days in media supplemented with IL2, IL7, and IL15, then frozen. Prior to the experiment, cells were thawed and allowed to rest in media with a dose titration of Compound C or without drug. […] To determine the impacts of CAR degradation on CAR T activity, cells were then co-cultured with a Nuclight red labeled H-1975 ROR1 expressing target cell line at a 1:4 effector:target cell ratio. Co-cultures were placed in the Incucyte for 24 hours to monitor tumor killing via Nuclight red signal (FIG. 14A), and supernatants were collected to measure proinflammatory cytokine production by MSD (FIG. 14B-14D; IL-2, TNFα, and IFNγ).

[5] = test system: H-1975 ROR1 expressing target cell line; assay: Primary CAR T effector function (tumor killing, cytokine production) in co-culture; format: cell-based; conditions: 1:4 effector:target, 24 hours, different concentrations
Method: as §3

ePL-tagged Aiolos = molecular target: T3, ePL-tagged Aiolos (Homo sapiens, UniProt Q96SW2+Q9UKT9); assay: ePL-tagged substrate degradation in DF15 multiple myeloma cells; format: cell-based
T3 construct: expressed in transfected cells
T3 sequence (Q9UKT9 whole entry): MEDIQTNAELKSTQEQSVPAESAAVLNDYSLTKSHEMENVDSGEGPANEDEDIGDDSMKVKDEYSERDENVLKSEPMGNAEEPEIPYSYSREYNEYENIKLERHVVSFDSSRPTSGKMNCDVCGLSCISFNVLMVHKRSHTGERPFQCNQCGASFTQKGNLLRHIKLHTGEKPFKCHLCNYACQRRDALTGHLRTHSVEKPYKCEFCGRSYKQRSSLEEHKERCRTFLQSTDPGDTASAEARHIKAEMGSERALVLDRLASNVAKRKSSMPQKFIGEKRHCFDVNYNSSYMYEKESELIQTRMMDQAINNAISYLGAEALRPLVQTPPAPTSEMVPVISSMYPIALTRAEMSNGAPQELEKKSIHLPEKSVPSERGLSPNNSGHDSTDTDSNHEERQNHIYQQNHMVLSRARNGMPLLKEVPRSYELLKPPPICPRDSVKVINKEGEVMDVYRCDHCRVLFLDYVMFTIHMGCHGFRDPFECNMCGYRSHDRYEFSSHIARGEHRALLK
T3 sequence (Q96SW2 whole entry): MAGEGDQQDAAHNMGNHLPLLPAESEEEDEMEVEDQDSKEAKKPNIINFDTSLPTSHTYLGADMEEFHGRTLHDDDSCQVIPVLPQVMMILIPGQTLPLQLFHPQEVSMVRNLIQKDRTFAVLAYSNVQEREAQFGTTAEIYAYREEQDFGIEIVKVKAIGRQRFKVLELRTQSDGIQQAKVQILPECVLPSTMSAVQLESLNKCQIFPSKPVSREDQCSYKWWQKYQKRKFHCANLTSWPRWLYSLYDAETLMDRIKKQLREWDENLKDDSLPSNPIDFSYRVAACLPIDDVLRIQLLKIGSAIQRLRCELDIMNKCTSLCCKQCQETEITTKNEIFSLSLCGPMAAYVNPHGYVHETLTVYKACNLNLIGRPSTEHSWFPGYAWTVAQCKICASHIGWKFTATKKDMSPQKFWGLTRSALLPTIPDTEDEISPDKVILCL
T3 sequence (Q16531 whole entry partner): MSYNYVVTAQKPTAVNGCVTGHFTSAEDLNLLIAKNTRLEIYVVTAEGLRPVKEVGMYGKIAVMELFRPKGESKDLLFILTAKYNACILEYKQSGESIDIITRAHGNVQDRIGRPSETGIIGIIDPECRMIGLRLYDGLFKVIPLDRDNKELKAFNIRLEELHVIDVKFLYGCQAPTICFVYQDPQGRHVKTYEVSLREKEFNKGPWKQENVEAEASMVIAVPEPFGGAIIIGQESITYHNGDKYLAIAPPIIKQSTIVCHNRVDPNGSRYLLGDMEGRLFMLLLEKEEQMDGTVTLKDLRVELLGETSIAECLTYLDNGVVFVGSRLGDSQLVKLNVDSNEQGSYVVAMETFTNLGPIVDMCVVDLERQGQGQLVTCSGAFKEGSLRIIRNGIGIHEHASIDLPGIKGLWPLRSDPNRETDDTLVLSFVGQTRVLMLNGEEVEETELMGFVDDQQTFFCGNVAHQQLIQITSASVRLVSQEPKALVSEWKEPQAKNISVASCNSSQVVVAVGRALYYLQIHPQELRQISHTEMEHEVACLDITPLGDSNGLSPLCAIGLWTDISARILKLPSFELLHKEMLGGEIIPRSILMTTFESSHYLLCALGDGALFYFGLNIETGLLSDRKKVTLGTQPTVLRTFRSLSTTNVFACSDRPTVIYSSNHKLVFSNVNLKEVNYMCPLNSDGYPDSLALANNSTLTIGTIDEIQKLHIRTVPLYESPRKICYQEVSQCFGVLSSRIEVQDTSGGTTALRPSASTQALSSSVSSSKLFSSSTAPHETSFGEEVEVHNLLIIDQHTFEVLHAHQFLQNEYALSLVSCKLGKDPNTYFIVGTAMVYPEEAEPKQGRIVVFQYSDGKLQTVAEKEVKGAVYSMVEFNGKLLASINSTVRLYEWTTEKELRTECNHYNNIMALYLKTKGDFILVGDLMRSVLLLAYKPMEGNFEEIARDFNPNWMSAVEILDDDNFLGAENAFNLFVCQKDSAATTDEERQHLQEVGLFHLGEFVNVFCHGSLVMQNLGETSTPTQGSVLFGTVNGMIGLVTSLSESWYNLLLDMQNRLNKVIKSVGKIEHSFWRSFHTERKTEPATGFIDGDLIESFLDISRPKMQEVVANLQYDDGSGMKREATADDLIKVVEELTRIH
Method: (§4) DF15 multiple myeloma cells stably expressing ePL-tagged Aiolos, Ikaros, or GSPT1, and MDS-L cells stably expressing ePL-tagged CK1a were generated via lentiviral infection with pLOC-ePL-Aiolos (or Ikaros, GSPT1, or CK1a). […] Compounds were dispensed by an acoustic dispenser (ATS acoustic transfer system from EDC Biosystems) into a 384-well plate in a 10-point dose response curve using 3-fold dilutions starting at 10 μM and going down to […]. Then, 25 μL of media (RPMI-1640+10% heat inactivated FBS+25 mM Hepes+1 mM Na pyruvate+1× NEAA+1×Pen Strep Glutamine) containing 5000 of DF15 or MSD-L cells was dispensed per well. Assay plates were incubated at 37° C. with 5% CO2 for 4 hours except 20 hours for GSPT1. After incubation, 25 μL of the InCELL Hunter detection reagent working solution (DiscoverX, catalogue no. 96-0002, Fremont, Calif.) was added to each well and incubated at room temperature for 60 min protected from light. After 60 min, luminescence was read on an Envision or PHERAstar luminescence reader.
All substrate degradation curves were processed and evaluated using ActivityBase (IDBS), a data analysis software package. Ymin is minimum percent protein remaining.

ePL-tagged CK1a = molecular target: T4, ePL-tagged CK1a (Homo sapiens, UniProt P48729+Q96SW2); assay: ePL-tagged substrate degradation in MDS-L cells; format: cell-based
T4 construct: expressed in transfected cells
T4 sequence (P48729 whole entry): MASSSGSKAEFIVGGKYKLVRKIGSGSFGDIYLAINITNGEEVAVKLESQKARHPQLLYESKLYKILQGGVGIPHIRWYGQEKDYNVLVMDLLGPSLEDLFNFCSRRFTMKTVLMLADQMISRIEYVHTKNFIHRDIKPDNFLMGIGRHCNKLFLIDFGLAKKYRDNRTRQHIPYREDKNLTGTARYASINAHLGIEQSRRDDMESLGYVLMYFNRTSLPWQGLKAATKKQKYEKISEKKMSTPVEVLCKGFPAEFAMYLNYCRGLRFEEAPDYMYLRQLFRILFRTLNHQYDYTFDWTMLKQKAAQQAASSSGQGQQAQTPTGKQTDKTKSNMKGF
T4 sequence (Q96SW2 whole entry): as the sequence (Q96SW2 whole entry) above
T4 sequence (Q16531 whole entry partner): as the sequence (Q16531 whole entry partner) above
Method: as §4
To determine the EC50 value of a compound for the degradation of a given substrate (concentration of compound that achieves half the maximum degradation observed), a four-parameter logistic model (sigmoidal dose—response model) (FIT=(A+{(B−A)/1+[(C/x)D]})) where C is the inflection point (EC50), D is the […], and A and B are the low and high limits of the fit, respectively) was used. All substrate degradation curves were processed and evaluated using ActivityBase (IDBS), a data analysis software package. Ymin is minimum percent protein remaining.

[6] = test system: CD19 CARs tagged with IKZF1 ZNF2_ZNF3 Q1F; assay: Small-molecule screen: Q1F degron-tagged CD19 CAR levels in Jurkat cells, flow cytometry; format: cell-based, human; conditions: versus Helios, Aiolos, Ikaros, GSPT1, CK1a

Ymin (%) ([1]; Degron Q1F (from Table 1), minimum percent protein remaining): 12%
DC50 ([1]; Degron Q1F (from Table 1), read-out: EC50 (the source's name)): 23 nM
DC50 ([1]; Jurkat assay described in Example 5, read-out: EC50 for the Q1F degron): < 25 nM
Ymin (Q1F degron) ([1]; Jurkat cells, 18 hours, CAR levels normalized to no drug): 12%
DC50 ([1]; Jurkat cells, 18 hours, CAR levels normalized to no drug, read-out: EC50 (Q1F degron)): 23 nM
levels of tagged CAR [2]: remained identical to untagged CAR
Ymin (%) (ePL-tagged Aiolos): 83%
DC50 (ePL-tagged Aiolos; Aiolos, DF15 cells, 4 hours, read-out: EC50 (the source's name)): > 10000 nM
Ymin (%) (ePL-tagged CK1a): 98%
DC50 (ePL-tagged CK1a; CK1a, MDS-L cells, 4 hours, read-out: EC50 (the source's name)): > 10000 nM
SMILES: Cc1ncccc1N1CCN(Cc2ccc3c(c2)CN(C2CCC(=O)NC2=O)C3=O)CC1 (stereo not drawn) [Compound C, 3-(5-((4-(2-methylpyridin-3-yl)piperazin-1-yl)methyl)-1-oxoisoindolin-2-yl)piperidine-2,6-dione]
tagged CAR remaining ([3]; WT Jurkat cells, 1 hour): below 20%
tagged CAR degradation in the presence of inhibitor ([3]; WT Jurkats, 2 hours, 20 nM or 200 nM, alongside 2 μM MLN4924 or 2 μM Bortezomib): failure to degrade tagged CAR
surface levels of ZNF2_3 Q1F-tagged CAR [4]: could be titrated
effector function of primary CAR T cells (killing and cytokine production) [5]: could be titrated
selectivity for the Q1F degron (in words) [6]: highly selective for the Q1F degron
